Reference: paper PMC10975980, “Open Meter Duo: Low-Cost Instrument for Fluorimetric Determination of Cholinesterase Activity” (Sensors (Basel, Switzerland), 2024)

Target: T1, acetylcholinesterase from Electrophorus electricus (AChE, EC 3.1.1.7, type V-S) (Electrophorus electricus, UniProt O42275)
T1 construct: commercial native electric eel enzyme, type V-S (Merck), crude enzyme protein dissolved in PBS with BSA as stabilizer
Assay: fluorimetric indoxyl acetate assay (Open Meter Duo)
Format: biochemical
Excerpt: fluorimetric indoxyl acetate assay (Open Meter Duo) on acetylcholinesterase from Electrophorus electricus (AChE, EC 3.1.1.7, type V-S)

T1 sequence (O42275 24-633): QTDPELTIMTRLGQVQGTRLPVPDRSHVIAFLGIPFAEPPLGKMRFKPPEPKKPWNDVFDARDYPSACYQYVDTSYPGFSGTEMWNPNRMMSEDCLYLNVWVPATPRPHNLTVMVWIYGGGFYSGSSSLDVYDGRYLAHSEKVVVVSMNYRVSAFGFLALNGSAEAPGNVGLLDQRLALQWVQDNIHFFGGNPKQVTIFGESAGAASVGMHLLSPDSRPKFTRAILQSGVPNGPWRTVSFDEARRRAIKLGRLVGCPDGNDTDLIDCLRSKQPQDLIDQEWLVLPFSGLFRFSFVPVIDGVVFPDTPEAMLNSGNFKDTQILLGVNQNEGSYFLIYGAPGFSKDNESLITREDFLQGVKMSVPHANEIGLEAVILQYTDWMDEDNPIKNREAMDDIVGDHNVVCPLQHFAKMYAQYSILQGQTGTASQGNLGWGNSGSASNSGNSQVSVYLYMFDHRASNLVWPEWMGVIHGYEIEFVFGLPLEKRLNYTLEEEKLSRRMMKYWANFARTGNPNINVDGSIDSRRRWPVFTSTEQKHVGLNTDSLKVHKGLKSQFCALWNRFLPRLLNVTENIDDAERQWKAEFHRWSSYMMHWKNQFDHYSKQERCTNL

CNC(=O)Oc1cccc2c1OC(C)(C)C2 [Carbofuran] was tested, and the IC50 was 84.3 nM.
